Assay results: PMC7156458, “Synthetic biology based construction of biological activity-related library of fungal decalin-containing diterpenoid pyrones” (Nature Communications, 2020)

Molecular target: Aβ42 (Homo sapiens, UniProt P05067)
Assay: Th-T (thioflavin-T) assay of Aβ42 aggregation
Format: biochemical
Details: for Th-T assay plate reading, mean of three wells (Supplementary Fig. 47): source data, Ab alone and No Ab as controls

Chain of Aβ42 (P05067 672-713): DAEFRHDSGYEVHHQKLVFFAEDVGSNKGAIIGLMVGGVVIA

## C=C1CCC2C(C)(CCC=C(C)C)C(O)CCC2(C)C1Cc1c(OC)oc(C)c(C)c1=O (stereo not drawn) [Compound 11]
Aβ42 aggregation time course, reading M117
  Th-T fluorescence, mean of three wells: 3.419
Aβ42 aggregation time course, reading M118
  Th-T fluorescence, mean of three wells: 3.454
Aβ42 aggregation time course, reading M119
  Th-T fluorescence, mean of three wells: 3.399
Aβ42 aggregation time course, reading M120
  Th-T fluorescence, mean of three wells: 3.398
Aβ42 aggregation time course, reading M121
  Th-T fluorescence, mean of three wells: 3.42
Aβ42 aggregation time course, reading M122
  Th-T fluorescence, mean of three wells: 3.434
Aβ42 aggregation time course, reading M123
  Th-T fluorescence, mean of three wells: 3.405
Aβ42 aggregation time course, reading M124
  Th-T fluorescence, mean of three wells: 3.409
Aβ42 aggregation time course, reading M125
  Th-T fluorescence, mean of three wells: 3.379
Aβ42 aggregation time course, reading M126
  Th-T fluorescence, mean of three wells: 3.403
Aβ42 aggregation time course, reading M127
  Th-T fluorescence, mean of three wells: 3.386
Aβ42 aggregation time course, reading M128
  Th-T fluorescence, mean of three wells: 3.37
Aβ42 aggregation time course, reading M129
  Th-T fluorescence, mean of three wells: 3.334
Aβ42 aggregation time course, reading M130
  Th-T fluorescence, mean of three wells: 3.361
Aβ42 aggregation time course, reading M131
  Th-T fluorescence, mean of three wells: 3.331
Aβ42 aggregation time course, reading M132
  Th-T fluorescence, mean of three wells: 3.363
Aβ42 aggregation time course, reading M133
  Th-T fluorescence, mean of three wells: 3.349
Aβ42 aggregation time course, reading M134
  Th-T fluorescence, mean of three wells: 3.347
Aβ42 aggregation time course, reading M135
  Th-T fluorescence, mean of three wells: 3.342
Aβ42 aggregation time course, reading M136
  Th-T fluorescence, mean of three wells: 3.355
Supplementary Fig. 47, reading M137
  Th-T fluorescence, mean of three wells: 3.327
Supplementary Fig. 47, reading M138
  Th-T fluorescence, mean of three wells: 3.302
Supplementary Fig. 47, reading M139
  Th-T fluorescence, mean of three wells: 3.301
Supplementary Fig. 47, reading M140
  Th-T fluorescence, mean of three wells: 3.319
Supplementary Fig. 47, reading M141
  Th-T fluorescence, mean of three wells: 3.315
Supplementary Fig. 47, reading M142
  Th-T fluorescence, mean of three wells: 3.306
Supplementary Fig. 47, reading M143
  Th-T fluorescence, mean of three wells: 3.276
Supplementary Fig. 47, reading M144
  Th-T fluorescence, mean of three wells: 3.297
Supplementary Fig. 47, reading M145
  Th-T fluorescence, mean of three wells: 3.29
Measurement M1
  Th-T assay plate reading, mean of three wells (Supplementary Fig. 47): 0.2852
Measurement M2
  Th-T assay plate reading, mean of three wells (Supplementary Fig. 47): 0.2849
Measurement M3
  Th-T assay plate reading, mean of three wells (Supplementary Fig. 47): 0.2915
Measurement M4
  Th-T assay plate reading, mean of three wells (Supplementary Fig. 47): 0.2733
Measurement M5
  Th-T assay plate reading, mean of three wells (Supplementary Fig. 47): 0.2777
Measurement M6
  Th-T assay plate reading, mean of three wells (Supplementary Fig. 47): 0.2762
Measurement M7
  Th-T assay plate reading, mean of three wells (Supplementary Fig. 47): 0.318
Measurement M8
  Th-T assay plate reading, mean of three wells (Supplementary Fig. 47): 0.3144
Measurement M9
  Th-T assay plate reading, mean of three wells (Supplementary Fig. 47): 0.404
Measurement M10
  Th-T assay plate reading, mean of three wells (Supplementary Fig. 47): 0.4577
Measurement M11
  Th-T assay plate reading, mean of three wells (Supplementary Fig. 47): 0.5537
Measurement M12
  Th-T assay plate reading, mean of three wells (Supplementary Fig. 47): 0.8108
Measurement M13
  Th-T assay plate reading, mean of three wells (Supplementary Fig. 47): 1.388
Measurement M14
  Th-T assay plate reading, mean of three wells (Supplementary Fig. 47): 1.929
Measurement M15
  Th-T assay plate reading, mean of three wells (Supplementary Fig. 47): 2.27
Measurement M16
  Th-T assay plate reading, mean of three wells (Supplementary Fig. 47): 2.506
Reading M17, Supplementary Fig. 47 source data
  Th-T fluorescence, mean of three wells: 2.688
time-course reading M97, Supplementary Fig. 47 source data
  Th-T fluorescence, mean of three wells: 3.56
time-course reading M98, Supplementary Fig. 47 source data
  Th-T fluorescence, mean of three wells: 3.55
time-course reading M99, Supplementary Fig. 47 source data
  Th-T fluorescence, mean of three wells: 3.504
time-course reading M100, Supplementary Fig. 47 source data
  Th-T fluorescence, mean of three wells: 3.536
time-course reading M101, Supplementary Fig. 47 source data
  Th-T fluorescence, mean of three wells: 3.529
time-course reading M102, Supplementary Fig. 47 source data
  Th-T fluorescence, mean of three wells: 3.494
time-course reading M103, Supplementary Fig. 47 source data
  Th-T fluorescence, mean of three wells: 3.477
time-course reading M104, Supplementary Fig. 47 source data
  Th-T fluorescence, mean of three wells: 3.513
time-course reading M105, Supplementary Fig. 47 source data
  Th-T fluorescence, mean of three wells: 3.503
time-course reading M106, Supplementary Fig. 47 source data
  Th-T fluorescence, mean of three wells: 3.461
time-course reading M107, Supplementary Fig. 47 source data
  Th-T fluorescence, mean of three wells: 3.469
time-course reading M108, Supplementary Fig. 47 source data
  Th-T fluorescence, mean of three wells: 3.473
time-course reading M109, Supplementary Fig. 47 source data
  Th-T fluorescence, mean of three wells: 3.5
time-course reading M110, Supplementary Fig. 47 source data
  Th-T fluorescence, mean of three wells: 3.498
time-course reading M111, Supplementary Fig. 47 source data
  Th-T fluorescence, mean of three wells: 3.4993
time-course reading M112, Supplementary Fig. 47 source data
  Th-T fluorescence, mean of three wells: 3.484
time-course reading M113, Supplementary Fig. 47 source data
  Th-T fluorescence, mean of three wells: 3.437
time-course reading M114, Supplementary Fig. 47 source data
  Th-T fluorescence, mean of three wells: 3.447
time-course reading M115, Supplementary Fig. 47 source data
  Th-T fluorescence, mean of three wells: 3.426
time-course reading M116, Supplementary Fig. 47 source data
  Th-T fluorescence, mean of three wells: 3.43
